Test results taken from PubChem BioAssay AID2060343 (Molecular Pharmacology Branch, DTP, NCI, 2025).

Tested on: 138582-337-R-J1-PDC spheroids with HUVEC/MSC, viability
Experiment: Anticancer human tumor 138582-337-R-J1-PDC patient-derived Merkel cell tumor cell line growth inhibition [IpAb]
Details: for IC50: curve of first compound; for viability, T/C: stronger effect = lower value
How it was run: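 Combinations with ipatasertib or abemaciclib were tested on tumour spheroids holding HUVEC (25%) and MSC (15%) alongside 60% malignant cells. Top concentration was at or near clinical Cmax (10 microM if undefined), descending in half-log steps.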

[1] = second compound 0.1 µM, first compound 0.0316 µM
[2] = second compound 0.1 µM, first compound 0.1 µM
[3] = second compound 0.316 µM, first compound 0.0316 µM
[4] = second compound 0.316 µM, first compound 0.1 µM
[5] = second compound 1 µM, first compound 0.0316 µM
[6] = second compound 1 µM, first compound 0.1 µM
[7] = second compound 3.16 µM, first compound 0.0316 µM
[8] = second compound 3.16 µM, first compound 0.1 µM
[9] = second compound 10 µM, first compound 0.0316 µM
[10] = second compound 10 µM, first compound 0.1 µM
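Note: spheroids exposed to compounds for seven days.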
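Throughout, for viability, T/C: 100% = DMSO vehicle control viability.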

Question: Which IC50 (second compound 0.1 µM) does the source give for `C=CC(=O)N1CCN(c2nc(=O)n(-c3c(C)ccnc3C(C)C)c3nc(-c4c(O)cccc4F)c(F)cc23)C(C)C1` (stereo not given) + CC(C)NCC(C(=O)N1CCN(c2ncnc3c2C(C)CC3O)CC1)c1ccc(Cl)cc1 here?
Answer: > 10 µM

Question: What about the IC50 (second compound 0.316 µM) of the same compound?
Answer: > 10 µM

Question: And the IC50 (second compound 1 µM)?
Answer: > 10 µM

Question: And the IC50 (second compound 3.16 µM)?
Answer: > 10 µM

Question: And the IC50 (second compound 10 µM)?
Answer: 0.0316 µM

Question: And the viability, T/C [1]?
Answer: 90.2%

Question: What about the viability, T/C [2] of the same compound?
Answer: 95.5%

Question: And the viability, T/C (second compound 0.1 µM, first compound 0.316 µM)?
Answer: 91.4%

Question: And the viability, T/C (second compound 0.1 µM, first compound 1 µM)?
Answer: 101%

Question: And the viability, T/C (second compound 0.1 µM, first compound 3.16 µM)?
Answer: 115%

Question: What about the viability, T/C (second compound 0.1 µM, first compound 10 µM) of the same compound?
Answer: 168%

Question: And the viability, T/C [3]?
Answer: 90.6%

Question: What about the viability, T/C [4] of the same compound?
Answer: 86.2%

Question: What about the viability, T/C (second compound 0.316 µM, first compound 0.316 µM) of the same compound?
Answer: 83.5%

Question: And the viability, T/C (second compound 0.316 µM, first compound 1 µM)?
Answer: 90.1%

Question: What about the viability, T/C (second compound 0.316 µM, first compound 3.16 µM) of the same compound?
Answer: 105%

Question: And the viability, T/C (second compound 0.316 µM, first compound 10 µM)?
Answer: 132%

Question: What about the viability, T/C [5] of the same compound?
Answer: 71.9%

Question: And the viability, T/C [6]?
Answer: 66.6%

Question: What about the viability, T/C (second compound 1 µM, first compound 0.316 µM) of the same compound?
Answer: 71.4%

Question: And the viability, T/C (second compound 1 µM, first compound 1 µM)?
Answer: 74.9%

Question: What about the viability, T/C (second compound 1 µM, first compound 3.16 µM) of the same compound?
Answer: 86.6%

Question: And the viability, T/C (second compound 1 µM, first compound 10 µM)?
Answer: 77.5%

Question: And the viability, T/C [7]?
Answer: 57.1%

Question: What about the viability, T/C [8] of the same compound?
Answer: 56.8%

Question: And the viability, T/C (second compound 3.16 µM, first compound 0.316 µM)?
Answer: 59.4%

Question: What about the viability, T/C (second compound 3.16 µM, first compound 1 µM) of the same compound?
Answer: 63.4%

Question: And the viability, T/C (second compound 3.16 µM, first compound 3.16 µM)?
Answer: 69%

Question: And the viability, T/C (second compound 3.16 µM, first compound 10 µM)?
Answer: 54%

Question: What about the viability, T/C [9] of the same compound?
Answer: 38.7%

Question: What about the viability, T/C [10] of the same compound?
Answer: 49.9%

Question: And the viability, T/C (second compound 10 µM, first compound 0.316 µM)?
Answer: 47.9%

Question: And the viability, T/C (second compound 10 µM, first compound 1 µM)?
Answer: 47.6%

Question: And the viability, T/C (second compound 10 µM, first compound 3.16 µM)?
Answer: 52.4%

Question: What about the viability, T/C (second compound 10 µM, first compound 10 µM) of the same compound?
Answer: 32.3%

Question: Which results are given for `CC(C)(C)c1cnc(CSc2cnc(NC(=O)C3CCNCC3)s2)o1` + CC(C)NCC(C(=O)N1CCN(c2ncnc3c2C(C)CC3O)CC1)c1ccc(Cl)cc1?
Answer: IC50 (second compound 0.1 µM): 0.0945 µM; IC50 (second compound 0.316 µM): 0.0767 µM; IC50 (second compound 1 µM): 0.0529 µM; IC50 (second compound 3.16 µM): 0.0371 µM; IC50 (second compound 10 µM): < 0.00949 µM; viability, T/C (second compound 0.1 µM, first compound 0.00949 µM): 104%; viability, T/C (second compound 0.1 µM, first compound 0.03 µM): 97.3%; viability, T/C (second compound 0.1 µM, first compound 0.0949 µM): 50.3%; viability, T/C (second compound 0.1 µM, first compound 0.3 µM): 0.31%; viability, T/C (second compound 0.1 µM, first compound 0.949 µM): 0.3%; viability, T/C (second compound 0.1 µM, first compound 3 µM): 0.37%; viability, T/C (second compound 0.316 µM, first compound 0.00949 µM): 79%; viability, T/C (second compound 0.316 µM, first compound 0.03 µM): 74.3%; viability, T/C (second compound 0.316 µM, first compound 0.0949 µM): 44.2%; viability, T/C (second compound 0.316 µM, first compound 0.3 µM): 0.31%; viability, T/C (second compound 0.316 µM, first compound 0.949 µM): 0.36%; viability, T/C (second compound 0.316 µM, first compound 3 µM): 0.44%; viability, T/C (second compound 1 µM, first compound 0.00949 µM): 72.7%; viability, T/C (second compound 1 µM, first compound 0.03 µM): 72.2%; viability, T/C (second compound 1 µM, first compound 0.0949 µM): 27%; viability, T/C (second compound 1 µM, first compound 0.3 µM): 0.41%; viability, T/C (second compound 1 µM, first compound 0.949 µM): 0.35%; viability, T/C (second compound 1 µM, first compound 3 µM): 0.37%; viability, T/C (second compound 3.16 µM, first compound 0.00949 µM): 55.2%; viability, T/C (second compound 3.16 µM, first compound 0.03 µM): 58.7%; viability, T/C (second compound 3.16 µM, first compound 0.0949 µM): 19.5%; viability, T/C (second compound 3.16 µM, first compound 0.3 µM): 0.33%; viability, T/C (second compound 3.16 µM, first compound 0.949 µM): 0.23%; viability, T/C (second compound 3.16 µM, first compound 3 µM): 0.81%; viability, T/C (second compound 10 µM, first compound 0.00949 µM): 43.8%; viability, T/C (second compound 10 µM, first compound 0.03 µM): 43.9%; viability, T/C (second compound 10 µM, first compound 0.0949 µM): 5.74%; viability, T/C (second compound 10 µM, first compound 0.3 µM): 0.5%; viability, T/C (second compound 10 µM, first compound 0.949 µM): 0.35%; viability, T/C (second compound 10 µM, first compound 3 µM): 0.49%

Question: What does the source list for `Cn1ncnc1[C@H]1c2n[nH]c(=O)c3cc(F)cc(c23)N[C@@H]1c1ccc(F)cc1` + CC(C)NCC(C(=O)N1CCN(c2ncnc3c2C(C)CC3O)CC1)c1ccc(Cl)cc1?
Answer: IC50 (second compound 0.1 µM): > 0.1 µM; IC50 (second compound 0.316 µM): > 0.1 µM; IC50 (second compound 1 µM): > 0.1 µM; IC50 (second compound 3.16 µM): > 0.1 µM; IC50 (second compound 10 µM): < 0.000316 µM; viability, T/C (second compound 0.1 µM, first compound 0.000316 µM): 99.1%; viability, T/C (second compound 0.1 µM, first compound 0.001 µM): 83%; viability, T/C (second compound 0.1 µM, first compound 0.00316 µM): 89.1%; viability, T/C (second compound 0.1 µM, first compound 0.01 µM): 78.3%; viability, T/C [1]: 78.6%; viability, T/C [2]: 82.9%; viability, T/C (second compound 0.316 µM, first compound 0.000316 µM): 69.7%; viability, T/C (second compound 0.316 µM, first compound 0.001 µM): 81.8%; viability, T/C (second compound 0.316 µM, first compound 0.00316 µM): 64.5%; viability, T/C (second compound 0.316 µM, first compound 0.01 µM): 70.9%; viability, T/C [3]: 72%; viability, T/C [4]: 74%; viability, T/C (second compound 1 µM, first compound 0.000316 µM): 72.8%; viability, T/C (second compound 1 µM, first compound 0.001 µM): 64.2%; viability, T/C (second compound 1 µM, first compound 0.00316 µM): 68%; viability, T/C (second compound 1 µM, first compound 0.01 µM): 72.7%; viability, T/C [5]: 74.2%; viability, T/C [6]: 62%; viability, T/C (second compound 3.16 µM, first compound 0.000316 µM): 58.1%; viability, T/C (second compound 3.16 µM, first compound 0.001 µM): 67.6%; viability, T/C (second compound 3.16 µM, first compound 0.00316 µM): 59.2%; viability, T/C (second compound 3.16 µM, first compound 0.01 µM): 55.2%; viability, T/C [7]: 51.3%; viability, T/C [8]: 54.8%; viability, T/C (second compound 10 µM, first compound 0.000316 µM): 38.2%; viability, T/C (second compound 10 µM, first compound 0.001 µM): 46.7%; viability, T/C (second compound 10 µM, first compound 0.00316 µM): 42.4%; viability, T/C (second compound 10 µM, first compound 0.01 µM): 39.2%; viability, T/C [9]: 38.9%; viability, T/C [10]: 40.2%
